Measurements from patent US20070142392A1, “Uses of rifamycins” (ActivBiotics, Inc., priority 2005, published 2007).
Converted amounts (≈) assume the structure as drawn. Like-named read-outs stand apart in the source and are kept apart here.

Tests used:
[1] = test system: E. faecalis; assay: MIC values, E. faecalis (Tables 1-4); assay type: cell-based
[2] = test system: E. coli; assay: MIC values, E. coli (Tables 1-4); assay type: cell-based
[3] = test system: H. flu; assay type: cell-based
[4] = test system: S. aureus ATCC29213; assay: MIC by broth dilution method; assay type: cell-based; conditions: S. aureus ATCC29213, inoculum 5×10^5 CFU/ml
Method: (§1) FIG. 2A is a schematic illustration showing the peak drug concentration of Compound 86 (1.13 μg/ml) in cage fluid from non-infected animals after single dose of 12.5 mg/kg. […] In this medium, bacterial counts remained stable in the absence of antibacterial agents for >36 hours.
(§2) In this medium, bacterial counts remained stable in the absence of antibacterial agents for >36 hours.
(§3) To understand the relative efficacy of peak drug concentration, it is compared to the minimal inhibitory concentration (MIC), the minimal bactericidal concentration for logarithmic phase growth (MBClog) and the MBCstat. […] The MBClog was defined as antimicrobial concentration that reduced the original inoculum by […] after 24 hour incubation (i.e. 3 log 10 CFU/ml), as described in the Manual of Clinical Microbiology. The MBCstat was determined as described in Example 1.

[5] = guinea pig, in vivo, ip
Source text: (§4) For pharmacokinetic studies, non-infected animals were used. […] Teflon tissue cages were implanted into the flanks of guinea pigs. For pharmacokinetic studies, non-infected animals were used.

[6] = test system: S. pneumo.; assay: MIC values, S. pneumo. (Tables 1-4); assay type: cell-based
[7] = test system: S. aureus; assay: MIC values, S. aureus (Tables 1-4); assay type: cell-based
[8] = test system: S. aureus ATCC29213; assay: minimal bactericidal concentration for logarithmic phase growth (MBClog); assay type: cell-based
Method: as §1, §2, §3

[9] = test system: S. aureus; assay: Foreign-body (tissue cage) infection model, antimicrobial treatment; assay type: in vivo, guinea pigs; conditions: for Cure rate of removed cages: cages removed day 9; for Mean log10 CFU/ml ± SD in aspirated cage fluid, during treatment / no. culture negative/total no., cage fluid during treatment: day 4; for Mean log10 CFU/ml ± SD in aspirated cage fluid, after treatment / no. culture negative/total no., cage fluid after treatment: day 9
Method: For pharmacokinetic studies, non-infected animals were used. […] Antibiotics were administered intraperitoneally every 12 hours for four days (total eight doses). […] The cure rate is the fraction of cages in which the infection was eradicated. […] Following incubation, 50 μl of the TSB mixture was plated on blood agar plates to determine the presence of bacteria. A foreign-body infection model in guinea pigs was used for in vivo analysis of antimicrobials as described in Example 2, however in this example the animals were infected. […] Antibiotics were administered intraperitoneally every 12 hours for four days (total eight doses).

[10] = test system: S. aureus; assay: minimal bactericidal concentration in the stationary growth phase (MBCstat); assay type: cell-based; conditions: Staphylococcus aureus, 1% glucose PBS pH 7.4 with 4% Muller Hinton Broth
Method: as §1, §2
The minimal bactericidal concentration in the stationary growth phase (MBCstat) was determined by using overnight bacterial cultures which were centrifuged and resuspended in medium containing 1% glucose supplemented phosphate buffered saline (PBS) pH 7.4 with 4% Muller Hinton Broth (Zimmerli et al., J Antimicrob. Chemother. 33:959-967 (1994)). In this medium, bacterial counts remained stable in the absence of antibacterial agents for >36 hours.

[11] = in vivo; conditions: albino, guinea pig, ip
Source text: as §4

## CO[C@H]1/C=C/O[C@@]2(C)Oc3c(C)c(O)c4c(=O)c(c5oc6cc(N7CCN(C)CC7)cc(O)c6nc-5c4c3C2=O)NC(=O)/C(C)=C\C=C\[C@H](C)[C@H](O)[C@@H](C)[C@@H](O)[C@@H](C)[C@H](O)[C@@H]1C [Compound 86]
[1]
  MIC E. faecalis: 0.015 µg/mL (≈ 0.0175 µM)
[2]
  MIC E. coli: 4 µg/mL (≈ 4.67 µM)
[3]
  MIC H. flu: 0.25 µg/mL (≈ 0.292 µM)
[4]
  minimal inhibitory concentration (MIC): 0.002 µg/mL (≈ 0.00233 µM)
[5]; 3 mg/kg
  Cmin: 40 ± 10 ng/mL
[5]; 12.5 mg/kg
  Cmax (peak drug concentration): 1130 ng/mL
  Cmin: 140 ± 110 ng/mL
  Tmax: 8 h
[6]
  MIC S. pneumo.: 0.00012 µg/mL (≈ 0.00014 µM)
[7]
  MIC S. aureus: 0.002 µg/mL (≈ 0.00233 µM)
[8]; 24 hour incubation
  MBClog: 0.008 μg/ml
[9]; 3 mg/kg/12 h i.p.
  Cure rate of removed cages: 8% (1/12)
  Mean log10 CFU/ml ± SD in aspirated cage fluid, during treatment: 4.76 ± 0.51 log10 CFU/ml
  no. culture negative/total no., cage fluid during treatment: 2/12
  Mean log10 CFU/ml ± SD in aspirated cage fluid, after treatment: 2.77 ± 0.53 log10 CFU/ml
  no. culture negative/total no., cage fluid after treatment: 4/12
[9]; 12.5 mg/kg/12 h i.p.
  Cure rate of removed cages: 58%
  Mean log10 CFU/ml ± SD in aspirated cage fluid, during treatment: 3.24 ± 0.27 log10 CFU/ml
  no. culture negative/total no., cage fluid during treatment: 5/12
  Mean log10 CFU/ml ± SD in aspirated cage fluid, after treatment: 1.57 ± 0.53 log10 CFU/ml
  no. culture negative/total no., cage fluid after treatment: 10/12
[9]; 12.5 mg/kg/12 h i.p., listed as Cpd 86
  Cure rate of removed cages: 58% (7/12)

## CO[C@H]1/C=C/O[C@@]2(C)Oc3c(C)c(O)c4c(=O)c(c5oc6cc(N7CC8CCC(C7)N8C)cc(O)c6nc-5c4c3C2=O)NC(=O)/C(C)=C\C=C\[C@H](C)[C@H](O)[C@@H](C)[C@@H](O)[C@@H](C)[C@H](OC(C)=O)[C@@H]1C [Compound 151]
[10]
  MBC: 0.156 µg/mL (≈ 0.169 µM)

## CO[C@H]1/C=C/O[C@@]2(C)Oc3c(C)c(O)c4c(=O)c(c5oc6cc(N7CC(N(C)C)C7)cc(O)c6nc-5c4c3C2=O)NC(=O)/C(C)=C\C=C\[C@H](C)[C@H](O)[C@@H](C)[C@@H](O)[C@@H](C)[C@H](OC(C)=O)[C@@H]1C [Compound 152]
[10]
  MBC: 0.469 µg/mL (≈ 0.522 µM)

## C[C@H]1COc2c(N3CCN(C)CC3)c(F)cc3c(=O)c(C(=O)O)cn1c23 [Levofloxacin, levofloxacin]
[11]; 5 mg/kg
  Tmax: 2 h
  concentration at 12 h: 10 ± 10 ng/mL
[10]
  MBC: 40 µg/mL (≈ 111 µM)

## CO[C@H]1/C=C/O[C@@]2(C)Oc3c(C)c(O)c4c(O)c(c(/C=N/N5CCN(C)CC5)c(O)c4c3C2=O)NC(=O)/C(C)=C\C=C\[C@H](C)[C@H](O)[C@@H](C)[C@@H](O)[C@@H](C)[C@H](OC(C)=O)[C@@H]1C [Rifampin, rifampin, reference compound]
[11]; 12.5 mg/kg
  AUC: 4560 ng·h/mL
  Cmax: 980 ng/mL
  Tmax: 2 h
  concentration at 12 h: 140 ± 90 ng/mL
[4]; Staphylococcus aureus, read-out: minimal inhibitory concentration (MIC)
  MIC: 0.016 µg/mL (≈ 0.0194 µM)
[5]; 12.5 mg/kg
  Tmax: two
[10]
  MBC: 3.6 µg/mL (≈ 4.37 µM)
[8]; Staphylococcus aureus, ATCC29213, 24 hour incubation
  MBC: 0.8 µg/mL (≈ 0.972 µM)
[9]; 12.5 mg/kg/12 h i.p.
  Mean log10 CFU/ml ± SD in aspirated cage fluid, during treatment: 3.68 ± 0.59 log10 CFU/ml
  no. culture negative/total no., cage fluid during treatment: 11/24
  Mean log10 CFU/ml ± SD in aspirated cage fluid, after treatment: 1.43 ± 0.28 log10 CFU/ml
  no. culture negative/total no., cage fluid after treatment: 19/24
